Data published in patent US9073966B2, “Inhibition of sweat malodor” (Firmenich SA, priority 2005, dated 2015).

Tested on: production of (S)-3-methyl-3-sulfanylhexan-1-ol
Assay: Screening of potentially malodor-inhibiting compounds: micro-organisms incubated with the Cys-Gly precursor, VSC quantified by GC-AED (procedure of Example 6)
Assay type: cell-based
Conditions: for inhibition of production of (S)-3-methyl-3-sulfanylhexan-1-ol: compounds added at 2 μmole
Procedure: Bacteria isolates were grown aerobically in the appropriate liquid media at 37° C. until OD600=1.0. Cells were harvested by centrifugation at 3000 g, 10 min, washed once with sterile 0.1M phosphate buffer (pH 6.0) and resuspended in fresh buffer. The concentration of individual strains incubated with the sweat precursor was between 1.10^+8 and 1.10^+10 cfu/mL. These freshly prepared bacteria (5 mL), were incubated with 0.1 mL of precursors (5 mg in 10 mL water), (or the sweat fraction, in Example 1 above), at 37° C. pH 6 in a close bottle. After the incubation time 1, 4 and 18 hours, 1 mL of ethyl acetate containing octanethiol and octadecane at 0.02 mg/mL was added and the fermentation broth was centrifuged at 16′000 g. The organic phase was directly injected on a GCSPB1 column coupled to MS and on a GCDMePeBetacdx chiral column coupled to AED detection. These experiments were repeated three times, two blanks were done with the micro-organism without the precursor and one with the precursor in the growing buffer only. No formation of sulfur compound was detected in blanks. The response factor for 1 μL injected of a solution 0.01 mg/mL of octanethiol was calculated in comparison of 1 μL injected of a racemic solution of 0.01 mg/mL of 3-methyl-3-sulphanylhexane-1-ol. The addition of both peaks areas (R/S) gave 280 (+/−5) and octanethiol 303 (+/−3) peaks surface over for injections so we used as an approximation a response factor of 1. Correlation factor for 1 μL injected on both column, were above 0.998 in the range of 1 to 10 ppm of (R/S)-3-methyl-3-sulfanylhexane-1-ol.
Micro-organisms suspended in fresh buffer (Example 5, detailed fermentation protocol) were split in two samples X and Y (negative control) of 5 mL.
[drawing 12] (obtained in Example 9) was added to sample X at a concentration of 2 μmol/L.
The samples comprising suspended micro-organisms and the compound to be screened were incubated at 37° C. for 30 min. […]
After the incubation times of 1, 4 and 18 hours, the increase of malodorous substance (compound 1 in FIG. 2) is briefly determined by sniffing of a trained person. […]
For the internal standard, the response factor for 1 μL injected of a solution 0.01 mg/mL of octanethiol was calculated in comparison of 1 μL injected of a racemic solution of 0.01 mg/mL of 3-methyl-3-sulphanylhexane-1-ol. […]
Stoichiometrically, 0.2 μmol of precursor produces 0.025 mg of VSC in 1 ml ethylacetate, if all precursor is metabolized. If less than […] of VSC is measured in sample X by the AED system, the screened compound, β-Cl-ala-gly, has the ability to reduce the development of malodor. […]

SMILES | inhibition of production of (S)-3-methyl-3-sulfanylhexan-1-ol (procedure of Example 6) [%] | effect on formation of metabolites like compound II upon screening (compound (VII) with Z being NH) | production of (S)-3-methyl-3-sulfanylhexan-1-ol compared to the control (compound added at 2 μmole, procedure of Example 6)
C#CC[C@H](N)C(=O)NCC(=O)O [Compound VI, N-[(2S)-2-amino-4-pentynoyl]glycine] | 75 | – | –
Nc1cccc(C(=O)NCC(=O)O)c1 [Compound VII, N-[3-amino-benzoyl]glycine] | – | clear and confirmed increase of metabolites | increased production
N[C@@H]1C=C(C(=O)NCC(=O)O)SC1 [IIIa, N-{[(4R)-4-amino-4,5-dihydro-2-thienyl]carbonyl}glycine] | 25 | – | –
